Reference: patent publication US6846845B2, “Heat shock protein inducer” (Eisai Co., Ltd., priority 2002, dated 2005)

How the values were obtained:
Assay type in all cases: in vivo, rat
[1] = system: iNOS; assay: iNOS induction in the heart after oral administration (Western blotting); conditions: oral 200 mg/kg, 24 hours after administration, FIG. 4(A)
Excerpt: (§1) Monoclonal IgG antibody cross-reactive to HSP70, HSP60 and HSP27 antibodies was purchased from Stressgen Biotechnologies Corporation ([…], Canada). Primary antibodies of nitric oxide synthase (NOS) or in other words inducible NOS (iNOS), endothelial NOS (eNOS) and neuronal NOS (nNOS) were purchased from Transduction Laboratories (Lexington, Ky.). The primary antibody of thioredoxin was kindly provided by Professor Yodoi of Kyoto University.
(§2) An emulsion of 100% by weight of geranylgeranylacetone (GGA) with 5% by weight of gum arabic and 0.008% by weight of tocopherol was given orally to the rats described above. The oral dosages were 50 mg/kg, 100 mg/kg, 200 mg/kg and 400 mg/kg (GGA groups). […] The vehicle was administered orally to the Control Group.
(§3) Next, the hearts were removed from the killed rats and frozen in liquid nitrogen. […]
(§4) The total protein concentration of the myocardium was quantified by the Bradford method (Bradford M M. A rapid and sensitive method for quantitation of microgram quantities of protein utilizing the principle of protein-dye binding. Anal Biochem 1976; 72:248-254). […] The proteins were detected by exposing the ECL cells with Hyperfilm (Amersham Pharmacia, Buckinghamshire, UK). Based on this, the amount of proteins on the immunoblots was quantified using National Institutes of Health (NIH) imaging software. […]

[2] = system: eNOS; assay: eNOS induction in the heart after oral administration (Western blotting); conditions: oral 200 mg/kg, 24 hours after administration, FIG. 4(A)
Excerpt: as §1, §2, §3, §4

[3] = system: myocardial cells; assay: Electron microscope findings in left ventricular papillary muscle after ischemia/reperfusion; conditions: GGA-treated rats, 20 min no-flow ischemia and 30 min reperfusion
Description: After 30 minutes of reperfusion […] 20 minutes of no-flow ischemia, the papillary muscle of the left ventricle was immediately removed from the GGA-treated and Control hearts, and cut into small blocks. The tissue blocks were then fixed in a cacodylate buffered (pH 7.4) solution containing 2.5% glutaraldehyde and paraformaldehyde at 4° C. for 2 hours, and postfixed in a cocodylate buffered (pH 7.4) solution containing 2% osmium tetroxide and 0.5% potassium ferrocyanide at 4° C. for 2 hours. The tissue blocks were then dehydrated in ethanol and embedded in epoxy resin. Ultra-thin sections were stained with uranyl acetate and lead cistate, and were viewed under a transmission electron microscope (JOEL-100CX, Tokyo).

CC(=O)CCC=C(C)CCC=C(C)CCC=C(C)CCC=C(C)C [GGA, 6, 10, 14, 18-tetramethyl-5,9, 13, 17-nonadecatetraen-2-one]
iNOS induction in the heart [1]: neither iNOS nor eNOS was induced | eNOS induction in the heart [2]: neither iNOS nor eNOS was induced | microstructure of myocardial cells by transmission electron microscopy [3]: preserved microstructurally
